From ChEMBL document CHEMBL5247666, “The rational design of novel 5-amino-2-oxindole derivatives with antiglaucomic activity” (2023)
Calls of active or inactive are those of the source. The rule behind the calls is not given here.

Experiments:
Oryctolagus cuniculus [1] = assay: Hypotensive effect in New Zealand white rabbits assessed as reduction in intraocular pressure at 100 uM administered topically in presence of 6-hydroxydopamine and measured every hour for 8 hrs relative to control; format: functional; parameters: scale not given: the % may be the effect or the level left
Oryctolagus cuniculus [2] = assay: Hypotensive effect in normotensive chinchilla rabbits assessed as maximal effective time administered once to both eyes and measured every hour for 6 hrs by automatic veterinary tonometer based assay; format: functional
Oryctolagus cuniculus [3] = assay: Hypotensive effect in normotensive chinchilla rabbits assessed as reduction in intraocular pressure administered once to both eyes and measured every hour for 6 hrs by automatic veterinary tonometer based assay relative to control; format: functional; parameters: concentration or dose not given beside the values
Oryctolagus cuniculus [4] = assay: Hypotensive effect in New Zealand white rabbits assessed as reduction in intraocular pressure at 100 uM administered topically in presence of reserpine and measured every hour for 8 hrs relative to control; format: functional; parameters: scale not given: the % may be the effect or the level left
Oryctolagus cuniculus [5] = assay: Hypotensive effect in normotensive chinchilla rabbits assessed as reduction in intraocular pressure administered once to both eyes and measured after 6 hrs by automatic veterinary tonometer based assay relative to control; format: functional; parameters: scale not given: the % may be the effect or the level left
Oryctolagus cuniculus [6] = assay: Hypotensive effect in normotensive chinchilla rabbits assessed as reduction in intraocular pressure administered once to both eyes and measured after 6 hrs by automatic veterinary tonometer based assay; format: functional, organism-based

Row | Structure (SMILES) | Activity (Oryctolagus cuniculus [1]) [%] | Time (Oryctolagus cuniculus [2]) [h] | Activity (Oryctolagus cuniculus [3]) [%] | Activity (Oryctolagus cuniculus [4]) [%] | Activity (Oryctolagus cuniculus [5]) [%] | Activity (Oryctolagus cuniculus [6])
1 | COc1ccc2[nH]cc(CCNC(C)=O)c2c1 [MELATONIN] | 5 | 3 | 12 | 5 | – | –
2 | COC(=O)Nc1ccc2c(c1)C(CC(=O)O)C(=O)N2 (stereo unspecified) | – | 3 | 12 | – | – | –
3 | COC(=O)Nc1ccc2c(c1)C(CC#N)C(=O)N2 (stereo unspecified) | – | 2 | 24 | – | 17 | –
4 | CCOC(=O)Nc1ccc2c(c1)C(CC#N)C(=O)N2 (stereo unspecified) | – | 5 | 8 | – | – | –
5 | CC(C)(C)NC[C@H](O)COc1nsnc1N1CCOCC1 [TIMOLOL] | – | 3 | 18 | – | – | inactive
6 | COC(=O)Nc1ccc2[nH]cc(CCNC(C)=O)c2c1 | 5 | – | – | 5 | – | –
